One may read the IC50 as the concentration at which inhibition is half-maximal.

Chain of recombinant human 15-PGDH (P15428 whole entry): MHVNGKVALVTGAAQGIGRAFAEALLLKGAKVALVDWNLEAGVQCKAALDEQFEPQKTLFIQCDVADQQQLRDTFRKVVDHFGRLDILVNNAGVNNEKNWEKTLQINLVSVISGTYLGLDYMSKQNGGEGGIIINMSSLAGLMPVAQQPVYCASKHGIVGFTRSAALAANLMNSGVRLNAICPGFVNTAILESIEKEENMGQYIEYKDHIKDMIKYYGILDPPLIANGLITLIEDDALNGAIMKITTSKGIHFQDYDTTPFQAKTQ

This assay has as its target recombinant human 15-PGDH (Homo sapiens (Human), UniProt P15428). The assay can be described thus: 15-PGDH enzyme inhibition test. In kind it is biochemical. The conditions noted are these: 4 nM recombinant human 15-PGDH, 30 μM PGE2, 1 mM NAD+, fluorescence 340/440 nm after 60 min. The method, boiled down:
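4 nM recombinant human 15-PGDH preincubated 12 min at room temperature with compound in 50 mM Tris-HCl pH 8.0, 0.01% Tween 20, 0.01% bovine gamma globulin.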
For the compound `Cn1ccc2cc(-c3c(F)ccc4cc(C(=O)N5CCC(F)(F)CC5)ccc34)ccc2c1=O` [compound 158], the half-maximal inhibitory concentration (IC50) was under 3 nM.

On to `Cn1c(=O)[nH]c(=O)c2ccc(-c3cccc4cc(C(=O)N5CCC(F)(F)CC5)cnc34)cc21` [compound 159], for which the IC50 is under 3 nM. Next, `O=C(c1cnc2c(-c3ccn4c(=O)ccnc4c3)cccc2c1)N1CCC(F)(F)CC1` [compound 160]: under 3 nM; `CS(=O)(=O)CCn1ncc2cc(-c3cccc4cc(C(=O)N5CCC(F)(F)CC5)ccc34)ccc2c1=O` [compound 161]: under 3 nM; `NCCn1ncc2cc(-c3cccc4cc(C(=O)N5CCC(F)(F)CC5)ccc34)ccc2c1=O` [compound 162]: under 3 nM. Next, `Cn1cnc2cc(-c3cccc4cc(C(=O)N5CCC(F)(F)CC5)cnc34)ccc2c1=O` [compound 164]: under 3 nM. Next, `Cc1n[nH]c(=O)c2ccc(-c3cccc4cc(C(=O)N5CCC(F)(F)CC5)cnc34)cc12` [compound 165]: under 3 nM. With `CN(C)C(=O)c1ccc2c(-c3ccn4c(=O)n(C)nc4c3)cccc2c1` [compound 166], the IC50 lay within 3 to 10 nM.
